Assay results: US7067261B2 (priority 2001, dated 2006)

Columns and labels:
[1] = test system: Reserpine-Induced Dopamine Depletion—Mice; settings: mouse, in vivo; cited from earlier work
α3β2 = α3β2 (Homo sapiens, UniProt P17787+P32297); type: cell-based
α4β2 = α4β2 (Homo sapiens, UniProt P17787+P43681); type: cell-based
JAK2 = type: cell-based
PI-3 kinase = type: cell-based, rat
muscle subtype α1β1γδ = muscle subtype α1β1γδ (Homo sapiens, UniProt P02708+P07510+Q07001); type: cell-based
α7 = α7 (Homo sapiens, UniProt P36544); test: biochemical; type: binding
α7, sequence (P36544 23-502): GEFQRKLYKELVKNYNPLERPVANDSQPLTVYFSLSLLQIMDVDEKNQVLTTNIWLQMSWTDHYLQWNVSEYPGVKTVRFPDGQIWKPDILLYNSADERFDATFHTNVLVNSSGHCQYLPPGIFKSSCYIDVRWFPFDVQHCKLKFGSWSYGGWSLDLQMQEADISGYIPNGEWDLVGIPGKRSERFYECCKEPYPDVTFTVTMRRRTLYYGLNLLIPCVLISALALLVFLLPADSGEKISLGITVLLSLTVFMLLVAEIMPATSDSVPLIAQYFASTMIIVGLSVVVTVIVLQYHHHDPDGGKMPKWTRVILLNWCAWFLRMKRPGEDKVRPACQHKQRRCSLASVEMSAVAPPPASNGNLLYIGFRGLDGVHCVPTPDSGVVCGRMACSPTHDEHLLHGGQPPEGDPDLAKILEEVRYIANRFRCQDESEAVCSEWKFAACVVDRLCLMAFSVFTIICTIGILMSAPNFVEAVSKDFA

α7 nAChR = α7 nAChR (Homo sapiens, UniProt P36544); type: cell-based
Akt = type: cell-based, rat
ganglionic subtype α3β4 = ganglionic subtype α3β4 (Homo sapiens, UniProt P30926+P32297); type: cell-based
ganglionic subtype α3β4, sequence (P32297 32-505): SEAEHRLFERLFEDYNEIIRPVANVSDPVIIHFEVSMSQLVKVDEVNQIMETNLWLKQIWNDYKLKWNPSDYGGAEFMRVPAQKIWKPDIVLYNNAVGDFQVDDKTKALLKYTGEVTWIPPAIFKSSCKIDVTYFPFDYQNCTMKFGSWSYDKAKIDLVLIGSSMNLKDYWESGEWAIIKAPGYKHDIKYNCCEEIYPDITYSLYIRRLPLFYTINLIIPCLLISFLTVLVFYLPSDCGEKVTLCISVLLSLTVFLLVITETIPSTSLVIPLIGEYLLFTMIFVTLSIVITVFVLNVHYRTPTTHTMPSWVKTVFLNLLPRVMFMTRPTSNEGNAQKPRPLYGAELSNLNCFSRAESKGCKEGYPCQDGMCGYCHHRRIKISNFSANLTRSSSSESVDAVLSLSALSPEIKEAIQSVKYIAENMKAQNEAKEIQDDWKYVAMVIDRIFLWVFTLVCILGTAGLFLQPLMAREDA
ganglionic subtype α3β4, sequence (P30926 22-498): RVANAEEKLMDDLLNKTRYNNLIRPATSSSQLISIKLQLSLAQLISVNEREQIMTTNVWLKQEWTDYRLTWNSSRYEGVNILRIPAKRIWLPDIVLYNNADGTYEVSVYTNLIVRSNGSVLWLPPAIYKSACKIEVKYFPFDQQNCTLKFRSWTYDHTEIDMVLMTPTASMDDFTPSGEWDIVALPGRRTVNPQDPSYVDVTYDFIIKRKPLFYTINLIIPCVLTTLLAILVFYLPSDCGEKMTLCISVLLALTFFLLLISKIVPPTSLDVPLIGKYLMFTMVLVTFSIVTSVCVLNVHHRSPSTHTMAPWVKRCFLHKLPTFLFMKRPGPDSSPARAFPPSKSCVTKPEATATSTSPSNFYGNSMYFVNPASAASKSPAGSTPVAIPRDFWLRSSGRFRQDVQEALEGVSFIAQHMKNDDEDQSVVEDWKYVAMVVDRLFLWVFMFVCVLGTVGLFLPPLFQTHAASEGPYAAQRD

[2] = molecular target: complex formation between Aβ(1–42) and α7-nAChR (Rattus norvegicus, UniProt Q05941); type: cell-based
complex formation between Aβ(1–42) and α7-nAChR, sequence (Q05941 23-502, one chain of several): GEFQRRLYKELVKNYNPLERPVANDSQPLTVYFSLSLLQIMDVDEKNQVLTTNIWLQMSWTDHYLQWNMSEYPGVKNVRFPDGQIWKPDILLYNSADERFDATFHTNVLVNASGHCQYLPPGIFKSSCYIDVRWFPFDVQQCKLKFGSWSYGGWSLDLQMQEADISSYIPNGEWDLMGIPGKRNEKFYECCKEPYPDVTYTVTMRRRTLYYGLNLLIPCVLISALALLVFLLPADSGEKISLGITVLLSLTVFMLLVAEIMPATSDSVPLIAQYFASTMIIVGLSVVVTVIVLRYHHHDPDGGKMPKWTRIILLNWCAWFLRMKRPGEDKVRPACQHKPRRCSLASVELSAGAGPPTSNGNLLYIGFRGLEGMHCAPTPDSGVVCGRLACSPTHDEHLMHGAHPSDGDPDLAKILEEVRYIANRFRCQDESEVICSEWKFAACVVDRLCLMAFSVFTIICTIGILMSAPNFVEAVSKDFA

caspase 3 = type: cell-based, rat
PC12 cells = type: cell-based, rat
[3] = test system: methamphetamine toxicity in mice; settings: mouse, in vivo; cited from earlier work
MPTP effects, Mice = settings: mouse, in vivo; cited from earlier work
[4] = molecular target: JAK2 complex formation with the α7 receptor (Rattus norvegicus, UniProt Q05941)
JAK2 complex formation with the α7 receptor, sequence (Q05941 23-502): as the sequence (Q05941 23-502, one chain of several) above
JAK2 complex formation with the α7 receptor, sequence (Q62689 whole entry, further chain): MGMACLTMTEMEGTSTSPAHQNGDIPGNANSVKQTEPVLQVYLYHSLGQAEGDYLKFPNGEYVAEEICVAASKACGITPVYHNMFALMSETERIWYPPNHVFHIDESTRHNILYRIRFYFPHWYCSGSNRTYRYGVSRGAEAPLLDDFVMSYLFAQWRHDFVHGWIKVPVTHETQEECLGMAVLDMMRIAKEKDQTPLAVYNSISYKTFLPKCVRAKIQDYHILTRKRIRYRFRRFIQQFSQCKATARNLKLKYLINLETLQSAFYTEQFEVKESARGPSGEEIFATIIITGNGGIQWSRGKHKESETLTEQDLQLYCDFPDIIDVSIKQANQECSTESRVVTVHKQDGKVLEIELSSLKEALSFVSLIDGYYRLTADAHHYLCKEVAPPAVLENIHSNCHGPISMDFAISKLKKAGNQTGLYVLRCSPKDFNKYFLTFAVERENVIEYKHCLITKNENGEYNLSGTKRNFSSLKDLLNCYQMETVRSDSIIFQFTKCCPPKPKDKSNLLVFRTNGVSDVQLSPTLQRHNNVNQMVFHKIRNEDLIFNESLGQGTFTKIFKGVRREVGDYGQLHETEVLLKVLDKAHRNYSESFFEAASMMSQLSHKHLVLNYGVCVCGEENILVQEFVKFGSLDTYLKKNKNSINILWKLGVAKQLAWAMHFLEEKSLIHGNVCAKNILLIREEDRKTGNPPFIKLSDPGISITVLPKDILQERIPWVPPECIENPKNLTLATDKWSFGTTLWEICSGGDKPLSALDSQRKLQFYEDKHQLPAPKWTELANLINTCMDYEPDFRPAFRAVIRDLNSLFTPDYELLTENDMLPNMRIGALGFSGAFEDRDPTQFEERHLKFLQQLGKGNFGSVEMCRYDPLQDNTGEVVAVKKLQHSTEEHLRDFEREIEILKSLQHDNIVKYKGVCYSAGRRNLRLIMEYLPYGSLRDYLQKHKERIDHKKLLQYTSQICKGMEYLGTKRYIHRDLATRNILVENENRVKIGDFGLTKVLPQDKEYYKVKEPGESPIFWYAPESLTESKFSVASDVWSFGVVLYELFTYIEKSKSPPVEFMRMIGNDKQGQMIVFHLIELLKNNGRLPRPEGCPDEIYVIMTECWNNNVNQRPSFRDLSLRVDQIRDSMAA

[5] = test system: 6-OHDA (Partial Lesion)—Rats; settings: rat, in vivo, sc, 1 mg/kg; cited from earlier work
[6] = test system: poly-(ADP-ribose)polymerase (PARP); type: cell-based, rat

muscle subtype α1β1γδ, sequence (P07510 23-517): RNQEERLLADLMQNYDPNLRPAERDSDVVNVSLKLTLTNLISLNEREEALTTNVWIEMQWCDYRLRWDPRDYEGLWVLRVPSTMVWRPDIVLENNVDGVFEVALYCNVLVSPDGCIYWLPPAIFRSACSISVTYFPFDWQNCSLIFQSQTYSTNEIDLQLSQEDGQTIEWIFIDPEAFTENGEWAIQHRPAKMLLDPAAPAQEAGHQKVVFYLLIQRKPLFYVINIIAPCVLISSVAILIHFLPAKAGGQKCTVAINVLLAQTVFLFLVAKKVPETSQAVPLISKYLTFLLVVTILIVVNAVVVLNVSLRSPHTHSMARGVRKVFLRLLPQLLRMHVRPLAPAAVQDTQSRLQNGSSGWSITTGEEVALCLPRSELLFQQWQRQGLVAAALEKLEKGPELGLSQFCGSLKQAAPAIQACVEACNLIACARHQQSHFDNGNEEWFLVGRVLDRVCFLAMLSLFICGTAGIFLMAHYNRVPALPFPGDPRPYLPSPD
muscle subtype α1β1γδ, sequence (Q07001 22-517): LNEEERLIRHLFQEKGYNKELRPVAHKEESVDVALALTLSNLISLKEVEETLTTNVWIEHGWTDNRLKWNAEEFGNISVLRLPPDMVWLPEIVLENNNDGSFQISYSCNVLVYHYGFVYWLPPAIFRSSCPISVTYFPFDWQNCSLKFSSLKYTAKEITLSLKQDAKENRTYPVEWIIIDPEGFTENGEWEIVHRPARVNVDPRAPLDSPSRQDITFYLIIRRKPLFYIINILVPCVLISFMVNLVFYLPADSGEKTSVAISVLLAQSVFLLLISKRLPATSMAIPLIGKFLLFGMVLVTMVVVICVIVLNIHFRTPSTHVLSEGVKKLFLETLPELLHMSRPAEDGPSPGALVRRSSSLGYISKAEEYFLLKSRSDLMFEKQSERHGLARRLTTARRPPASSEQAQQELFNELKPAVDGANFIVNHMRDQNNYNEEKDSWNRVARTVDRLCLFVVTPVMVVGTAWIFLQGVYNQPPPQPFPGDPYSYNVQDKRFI
muscle subtype α1β1γδ, sequence (P02708 21-457): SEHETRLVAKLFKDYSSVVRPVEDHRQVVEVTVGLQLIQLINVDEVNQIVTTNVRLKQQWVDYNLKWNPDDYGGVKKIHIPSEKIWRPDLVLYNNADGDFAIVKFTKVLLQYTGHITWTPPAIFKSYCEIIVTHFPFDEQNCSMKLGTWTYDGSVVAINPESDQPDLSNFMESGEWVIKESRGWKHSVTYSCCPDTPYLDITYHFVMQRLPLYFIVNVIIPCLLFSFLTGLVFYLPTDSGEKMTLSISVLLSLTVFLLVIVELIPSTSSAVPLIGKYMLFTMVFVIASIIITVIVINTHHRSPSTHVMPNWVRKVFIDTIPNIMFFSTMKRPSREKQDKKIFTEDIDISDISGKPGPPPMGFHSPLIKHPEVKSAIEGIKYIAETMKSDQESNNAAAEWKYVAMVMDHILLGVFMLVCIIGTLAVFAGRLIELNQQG
muscle subtype α1β1γδ, sequence (P11230 24-501, further chain): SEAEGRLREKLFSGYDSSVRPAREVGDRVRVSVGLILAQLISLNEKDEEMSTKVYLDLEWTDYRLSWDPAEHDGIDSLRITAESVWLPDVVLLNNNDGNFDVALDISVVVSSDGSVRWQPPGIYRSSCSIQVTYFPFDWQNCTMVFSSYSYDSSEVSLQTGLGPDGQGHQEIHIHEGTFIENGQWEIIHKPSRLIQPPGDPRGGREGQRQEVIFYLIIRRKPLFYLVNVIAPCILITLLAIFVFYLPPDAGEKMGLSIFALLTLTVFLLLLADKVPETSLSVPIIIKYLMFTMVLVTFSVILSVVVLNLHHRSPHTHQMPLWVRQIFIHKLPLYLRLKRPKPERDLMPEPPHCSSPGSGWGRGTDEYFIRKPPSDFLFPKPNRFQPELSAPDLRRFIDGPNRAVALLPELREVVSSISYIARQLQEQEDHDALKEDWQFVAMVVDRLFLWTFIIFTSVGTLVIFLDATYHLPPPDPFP

In the case of `CNC1(C)C2CCC(C2)C1(C)C` (stereo not shown) [mecamylamine], the “effect on NIC blockade of reserpine-induced dopamine depletion” value [1] is listed as “blocked”.
For `c1cncc(C2CCC3CCN2CC3)c1` (stereo not shown) [TC-1698, 2-Pyridin-3-yl-1-aza-bicyclo[3.2.2]nonane], the “activation of neuronal subtype α3β2” value (α3β2) was “does not activate”, the “activation of neuronal subtype α4β2” value (α4β2) was “does not activate” and the “phosphorylation of Jak-2” value (JAK2) was “induces phosphorylation of Jak-2”. For the same compound, the “activation of PI-3 Kinase” value (PI-3 kinase) was “activation”, the “activation of muscle subtype α1β1γδ” value (muscle subtype α1β1γδ) was “does not activate” and the Ki (α7) was 0.8 nM. The “potency in activating α7 nAChR relative to acetylcholine” value (α7 nAChR) was 50 fold, the “activation of Akt” value (Akt) was “activation” and the “activation of ganglionic subtype α3β4” value (ganglionic subtype α3β4) was “does not activate”.
In the case of `CN1CCCC1c1cccnc1` (stereo not shown) [nicotine], the “effect on co-immunoprecipitation (complex formation) of Aβ(1–42) and α7-nAChR” value [2] is reported as “blocked”, the “time to JAK2 tyrosine phosphorylation” value (JAK2) is reported as 5 to 10 min and the “effect on Aβ(1–42)-induced activation of caspase 3” value (caspase 3; PC12 cells, nicotine 10 μM, Aβ(1–42) 100 nM, P<0.01) is reported as “blocked”. For the same compound, the “effect on Ang II-induced apoptosis (cell number)” value (PC12 cells; PC12 cells, Ang II 100 nM, 8 hours) was “not affected”, the “effect on Aβ(1–42)-induced cell death when co-incubated with AG-490” value (PC12 cells; PC12 cells, Aβ(1–42) 100 nM, 8 hours) was “no effect” and the “effect on cell death induced by Aβ(1–42)” value (PC12 cells; PC12 cells, Aβ(1–42) 100 nM, 8 hours, P<0.01) was “significantly reduced”. For the same compound, the “methamphetamine toxicity (brain levels)” value [3] was “prevents”, the “striatal MPP+ levels induced by MPTP” value (MPTP effects, Mice) was “reduces” and the reserpine-induced dopamine depletion [1] was “blocked”. The “time to association of JAK2 with the α7 receptor” value [4] was ≤ 5 min and the “dopaminergic neurotoxicity (loss of striatal dopamine) induced by 6-OHDA” value [5] was “attenuates”.
For `C[N+](C)(C)CCCCCC[N+](C)(C)C` [hexamethonium], the “effect on NIC blockade of reserpine-induced dopamine depletion” value [1] is listed as “not”.
In the case of `N#C/C(=C/c1ccc(O)c(O)c1)C(=O)NCc1ccccc1` [AG-490], the “effect on co-immunoprecipitation (complex formation) of Aβ(1–42) and α7-nAChR” value [2] is reported as “prevented”, the “effect on TC-1698-induced activation of JAK2” value (JAK2) is reported as “suppression of activation” and the “effect on basal and nicotine-stimulated JAK2 tyrosine phosphorylation” value (JAK2) is reported as “inhibits”. The “effect on nicotine inhibition of Aβ(1–42)-induced caspase 3 activation” value (caspase 3) was “prevented”, the “effect on TC-1698-induced activation of PI-3 Kinase” value (PI-3 kinase) was “suppression of activation” and the “effect on nicotine-induced tyrosine phosphorylation of PI-3K” value (PI-3 kinase) was “inhibits”. The “effect on TC-1698-induced activation of Akt” value (Akt) was “suppression of activation” and the “effect on nicotine-induced serine phosphorylation of Akt” value (Akt) was “inhibits”.
With “Ang II (DRVYIHPF; Angiotensin-2; UniProt P01019 25-32, looked up)” the “PARP cleavage / induction” value [6] was “nicotine-insensitive PARP induction”, the “effect of preincubation on nicotine-induced tyrosine phosphorylation of JAK2” value (JAK2) was “blocks” and the PC12 cell number (PC12 cells) was “significantly reduced”. For the same compound, the “effect on nicotine-induced neuroprotection (cell viability)” value (PC12 cells) was “complete reversal”.
For Aβ(1–42), the “PARP cleavage / induction” value [6] was “cleaved”, the “caspase 3 activity” value (caspase 3) was “significant increase” and the PC12 cell number (PC12 cells) was “significant decrease”.
